Laboratory results reported in US20120058208A1 (SYNTHITE INDUSTRIES LTD., priority 2010, published 2012).

How the values were obtained:
[1] = system: HCT-116 human xenograft; assay: In vivo anti-cancer activity in human colorectal (HCT-116) xenograft model in SCID mice
Description: Human colorectal (HCT-116) xenograft model in SCID mice
Five-week-old female mice purchased from the Advanced Centre for Treatment, Research and Education in Cancer (ACTREC) were used for in vivo experiments. The Institutional Animal Ethics Committee (IAEC) approved the in vivo study. Animals were injected with 1×10^6 HCT-116 cells subcutaneously in the flank region. Animals were monitored daily during the period between inoculation and palpable tumor growth. Tumor size was measured with a digital Vernier caliper and tumor-bearing mice were randomized into control and treatment groups (n=8), when the tumor volume was attained ˜100 mm^3. […] Tumor volume and was body weight was measured twice weekly. The following formula was used to calculate the tumor volume: Tumor volume=[…]. Percent reduction in tumor growth was calculated with respect to the Vehicle treated group.

[2] = given dose 50 mg/kg; adjuvant given with curcumin; cited from earlier work

Row | SMILES | % Redn. (percent reduction in tumor growth with respect to the Vehicle treated group) ([1]; 150 mg/kg oral once daily for 28 days) | Tumor volume, Mean ± SE, Day 0 ([1]; 150 mg/kg oral once daily, Day 0) | Tumor volume, Mean ± SE, Day 4 ([1]; 150 mg/kg oral once daily, Day 4) | Tumor volume, Mean ± SE, Day 8 ([1]; 150 mg/kg oral once daily, Day 8) | Tumor volume, Mean ± SE, Day 12 ([1]; 150 mg/kg oral once daily, Day 12) | Tumor volume, Mean ± SE, Day 16 ([1]; 150 mg/kg oral once daily, Day 16) | Tumor volume, Mean ± SE, Day 19 ([1]; 150 mg/kg oral once daily, Day 19) | Tumor volume, Mean ± SE, Day 22 ([1]; 150 mg/kg oral once daily, Day 22) | Tumor volume, Mean ± SE, Day 26 ([1]; 150 mg/kg oral once daily, Day 26) | Tumor volume, Mean ± SE, Day 29 ([1]; 150 mg/kg oral once daily, Day 29) | enhancement of the bioavailability of curcumin [2]
1 | O=C(CCCCCCC(=O)Nc1ccccc1)NO [Vorinostat] | 47% | 131.6 ± 23.1 mm^3 | 236.6 ± 42.7 mm^3 | 334.4 ± 52.3 mm^3 | 460.6 ± 76.0 mm^3 | 544.6 ± 79.1 mm^3 | 669.6 ± 107.0 mm^3 | 726.0 ± 120.8 mm^3 | 916.6 ± 157.9 mm^3 | 979.1 ± 157.2 mm^3 | –
2 | CCCCC[C@H](O)CC(=O)CCc1ccc(O)c(OC)c1 [gingerol] | – | – | – | – | – | – | – | – | – | – | 43%
3 | O=C(/C=C/C=C/c1ccc2c(c1)OCO2)N1CCCCC1 [piperine] | – | – | – | – | – | – | – | – | – | – | 33%
